Results on one compound are retold here after US20230381148A1, “HDAC6 INHIBITORS FOR TREATMENT OF METABOLIC DISEASE AND HFPEF” (Tenaya Therapeutics, Inc., priority 2021, published 2023).

The assay concerns HFD/L-NAME mice. Kind of assay: HFD/L-NAME HFpEF mouse model, TYA-11018 versus Empagliflozin for 9 weeks. In kind it is in vivo. To be noted: TYA-11018 15 mg/kg, Empagliflozin 10 mg/kg. On the procedure: After HFpEF phenotypes were established, mice received 15 mg/kg TYA-11018 or 10 mg/kg Empagliflozin, or vehicle orally once daily for 9 weeks. Health monitoring was performed weekly with body weights recorded. Glucose tolerance test was performed after 1st dose. Cardiac function was recorded by echocardiography after treatment for 9 weeks. End diastolic pressure (EDP) was measured by PV-Loop at terminal at 9 weeks after dosing.
Animals: Cohort of mice with established HFpEF phenotypes and age/sex matched wild type controls were used for dosing study. […] After acclimation for 1 week, one group of mice was fed with high fat diet containing 0.07% L-NAME (LabDiet 5G5V, St Louis, MO) for 15 weeks. The control group of mice were fed with normal chow (LabDiet 5053, St Louis, MO). […] Animals were housed in an animal research facility in accordance with the National Research Council of the National Academies guidelines for the care and use of laboratory animals.
A second group of mice was fed with standard chow for controls.
Transthoracic echocardiography was performed using a VisualSonics Vevo 2100 system equipped with MS400 transducer (Visual Sonics, Toronto, ON). LVEF and other indices of systolic function were obtained from short-axis M-mode scans at the midventricular level, as indicated by the presence of papillary muscles, in conscious, gently restrained mice. […]
Intraperitoneal glucose-tolerance tests were performed by injection of glucose (2 g/kg in saline) after 6 hour fasting (from 7 a.m. to 1 p.m.). Tail blood glucose levels (mg/dL) were measured by AimStrip Plus blood glucose strips used with the AimStrip Plus blood glucose monitoring system (Germaine Laboratories, San Antonio, TX) at 0 (baseline, before glucose dose), 15, 30, 45, 60 and 120 minutes after glucose administration.
The trachea was exposed by a midline incision from the base of the throat to just above the clavicle. […] The hemodynamic parameters were then recorded in close-chest mode. […]

Regarding `OC[C@H]1O[C@@H](c2ccc(Cl)c(Cc3ccc(O[C@H]4CCOC4)cc3)c2)[C@H](O)[C@@H](O)[C@@H]1O` [Empagliflozin, empagliflozin], the E/A ratio entry was “decreased”, the “E/e′ ratio” value is reported as “decreased” and the end diastolic pressure entry was “reduced end diastolic pressure”.
